This test addresses T1, full length active recombinant SYK enzyme (Homo sapiens, UniProt P43405).
T1 construct: full length active recombinant SYK enzyme (Millipore, Calif.); purchased Millipore
Put plainly: Inhibition of Syk tyrosine phosphorylation activity (LANCE TR-FRET kinase assay). Conditions: activity in the Syk assays, class symbols. The class given is biochemical. The gist of the method:
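IC50 was derived by non-linear regression of TR-FRET signal (Eu-W1024-PY100 donor, streptavidin-APC acceptor) read 1 h after EDTA quench. The kinase step ran 1 h at room temperature with 1 nM full-length SYK, 550 nM biotinylated DEEDYESP substrate and 100 μM ATP in Tris pH 7.5/MgCl2/DTT at 3% final DMSO.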

In the case of `CC[C@@H](Nc1cnc(C(N)=O)c(Nc2ccc3nccn3c2)n1)C(N)=O` [Example 426, (R)-5-((1-amino-1-oxobutan-2-yl)amino)-3-(imidazo[1,2-a]pyridin-6-ylamino)pyrazine-2-carboxamide], the IC50 (usually the point on the concentration scale where inhibition reaches its midpoint) lay within 1 to 10 nM.

For `Cn1ccc2c(Nc3nc(N[C@@H]4CCCC[C@@H]4N)cnc3C(N)=O)cccc21` [Example 11, 5-((1R,2S)-2-aminocyclohexylamino)-3-(1-methyl-1H-indol-4-ylamino)pyrazine-2-carboxamide], the IC50 was 1 to 10 nM.

As to `CCc1cc(Nc2nc(N[C@H](CC3CC3)C(N)=O)cnc2C(N)=O)sn1` [Example 225, (R)-5-(1-amino-3-cyclopropyl-1-oxopropan-2-ylamino)-3-(3-ethylisothiazol-5-ylamino)pyrazine-2-carboxamide], the IC50 was 1 to 10 nM.

As to `NC(=O)c1ncc(N[C@H](C2CC2)C2(N)CC2)nc1Nc1cccc(-c2ncccn2)c1` [Example 72, (R)-5-((1-aminocyclopropyl)(cyclopropyl)methylamino)-3-(3-(pyrimidin-2-yl)phenylamino)pyrazine-2-carboxamide], the IC50 lay in the range of 1 to 10 nM.

As to `Cc1cc(Nc2nc(N[C@H](Cc3c[nH]c4ccccc34)C(N)=O)cnc2C(N)=O)sn1` [Example 389, (R)-5-(1-amino-3-(1H-indol-3-yl)-1-oxopropan-2-ylamino)-3-(3-methylisothiazol-5-ylamino)pyrazine-2-carboxamide], the half-inhibitory concentration (IC50) was 1 to 10 nM.

With `NC(=O)c1ncc(N[C@@H]2CCOC[C@@H]2N)nc1Nc1cccc(-n2nccn2)c1` [Example 81, 3-(3-(2H-1,2,3-triazol-2-yl)phenylamino)-5-((3R,4R)-3-aminotetrahydro-2H-pyran-4-ylamino)pyrazine-2-carboxamide], the IC50 is under 1 nM.

In the case of `CC(C)[C@@H](Nc1cnc(C(N)=O)c(Nc2cnc3cc(F)ccc3c2)n1)C(N)=O` [Example 203, (R)-5-(1-amino-3-methyl-1-oxobutan-2-ylamino)-3-(7-fluoroquinolin-3-ylamino)pyrazine-2-carboxamide], the IC50 is 1 to 10 nM.

On to `NC(=O)c1ncc(N[C@@H]2CCCC(F)(F)[C@@H]2N)nc1Nc1cccnc1` [Example 371, 5-((1R,2R)-2-amino-3,3-difluorocyclohexylamino)-3-(pyridin-3-ylamino)pyrazine-2-carboxamide], for which the IC50 lay within 10 to 100 nM.

With `CC[C@@H](Nc1cnc(C(N)=O)c(Nc2ccc3ccncc3c2)n1)C(N)=O` [Example 379, (R)-5-(1-amino-1-oxobutan-2-ylamino)-3-(isoquinolin-7-ylamino)pyrazine-2-carboxamide], the IC50 fell in the range of 1 to 10 nM.

For `NC(=O)c1ncc(N[C@@H]2CCCC[C@@H]2N)nc1Nc1cncs1` [Example 449, 5-(((1R,2S)-2-aminocyclohexyl)amino)-3-(thiazol-5-ylamino)pyrazine-2-carboxamide], the IC50 is over 1000 nM.

On to `NC(=O)c1ncc(N[C@@H]2CCNC2)nc1Nc1cccc(-n2nccn2)c1` [Example 105, (R)-3-((3-(2H-1,2,3-triazol-2-yl)phenyl)amino)-5-(pyrrolidin-3-ylamino)pyrazine-2-carboxamide], for which the IC50 lay within 1 to 10 nM.

Take `NC(=O)c1ncc(N[C@@H]2CCCC[C@@H]2N)nc1Nc1ccnc2ncccc12` [Example 437, 3-((1,8-naphthyridin-4-yl)amino)-5-(((1R,2S)-2-aminocyclohexyl)amino)pyrazine-2-carboxamide]: the IC50 lay in the range of 1 to 10 nM.

`CS(=O)(=O)c1ccc(Nc2nc(N[C@@H]3CCCC[C@@H]3N)cnc2C(N)=O)cc1` [Example 153, 5-((1R,2S)-2-aminocyclohexylamino)-3-(4-(methylsulfonyl)phenylamino)pyrazine-2-carboxamide]: the IC50 is 1 to 10 nM.

Turning to `NC(=O)c1ncc(N[C@@H](C(N)=O)c2ccccc2)nc1Nc1ccc2ncccc2c1` [Example 33, (R)-5-(2-amino-2-oxo-1-phenylethylamino)-3-(quinolin-6-ylamino)pyrazine-2-carboxamide], the IC50 is 1 to 10 nM.

As for `COc1ccc(Nc2nc(N[C@H](CC(C)C)C(N)=O)cnc2C(N)=O)cn1` [Example 312, (R)-5-(1-amino-4-methyl-1-oxopentan-2-ylamino)-3-(6-methoxypyridin-3-ylamino)pyrazine-2-carboxamide], the IC50 was in the range of 1 to 10 nM.

Take `NC(=O)c1ncc(N[C@@H]2CCCC[C@@H]2N)nc1Nc1cnc2scnc2c1` [Example 434, 5-(((1R,2S)-2-aminocyclohexyl)amino)-3-(thiazolo[5,4-b]pyridin-6-ylamino)pyrazine-2-carboxamide]: the IC50 was 1 to 10 nM.

Regarding `CCc1ccc(Nc2nc(N[C@@H]3CCCC[C@@H]3N)cnc2C(N)=O)cn1` [Example 350, 5-((1R,2S)-2-aminocyclohexylamino)-3-(6-ethylpyridin-3-ylamino)pyrazine-2-carboxamide], the IC50 fell in the range of 1 to 10 nM.

Take `NC(=O)c1ncc(N[C@@H]2CCCC(F)(F)[C@@H]2N)nc1Nc1ccnc2ccccc12` [Example 366, 5-((1R,2R)-2-amino-3,3-difluorocyclohexylamino)-3-(quinolin-4-ylamino)pyrazine-2-carboxamide]: the IC50 lay within 10 to 100 nM.

With `NC(=O)c1ncc(N[C@@H]2CCCC[C@@H]2N)nc1Nc1ccc(C2CC2)nc1` [Example 351, 5-((1R,2S)-2-aminocyclohexylamino)-3-(6-cyclopropylpyridin-3-ylamino)pyrazine-2-carboxamide], the IC50 was 1 to 10 nM.

With `NC(=O)c1ncc(N[C@@H]2CCCC[C@@H]2N)nc1Nc1ccc(-n2cccn2)cc1` [Example 62, 3-(4-(1H-pyrazol-1-yl)phenylamino)-5-((1R,2S)-2-aminocyclohexylamino)pyrazine-2-carboxamide], the IC50 is 100 to 1000 nM.

Consider `NC(=O)c1ncc(N[C@@H]2CCCC(F)(F)[C@@H]2N)nc1Nc1ccc2nccnc2c1` [Example 365, 5-((1R,2R)-2-amino-3,3-difluorocyclohexylamino)-3-(quinoxalin-6-ylamino)pyrazine-2-carboxamide], for which the IC50 was 10 to 100 nM.

Turning to `NC(=O)c1ncc(N[C@@H]2CCOC[C@@H]2N)nc1Nc1cnc2ccccc2c1` [Example 79, 5-((3R,4R)-3-aminotetrahydro-2H-pyran-4-ylamino)-3-(quinolin-3-ylamino)pyrazine-2-carboxamide], the IC50 is 1 to 10 nM.

As for `Cn1ccc2cc(Nc3nc(N[C@H](CC4CC4)C(N)=O)cnc3C(N)=O)ccc21` [Example 396, (R)-5-(1-amino-3-cyclopropyl-1-oxopropan-2-ylamino)-3-(1-methyl-1H-indol-5-ylamino)pyrazine-2-carboxamide], the IC50 lay in the range of 1 to 10 nM.

Regarding `Cc1ccc(Nc2nc(N[C@H](CC(C)C)C(N)=O)cnc2C(N)=O)cn1` [Example 86, (R)-5-(1-amino-4-methyl-1-oxopentan-2-ylamino)-3-(6-methylpyridin-3-ylamino)pyrazine-2-carboxamide], the IC50 is 10 to 100 nM.

As for `Cc1nsc(Nc2nc(N[C@@H]3CCCC[C@@H]3N)cnc2C(N)=O)c1F` [Example 138], the IC50 was in the range of 1 to 10 nM.

Turning to `CC[C@@H](Nc1cnc(C(N)=O)c(Nc2ccc(N3CCC3)nc2)n1)C(N)=O` [Example 319, (R)-5-(1-amino-1-oxobutan-2-ylamino)-3-(6-(azetidin-1-yl)pyridin-3-ylamino)pyrazine-2-carboxamide], the IC50 lay within 10 to 100 nM.

Turning to `CC[C@@H](Nc1cnc(C(N)=O)c(Nc2ccc(-n3ccnc3)cc2)n1)C(N)=O` [Example 80, (R)-3-(4-(1H-imidazol-1-yl)phenylamino)-5-(1-amino-1-oxobutan-2-ylamino)-pyrazine-2-carboxamide], the IC50 was 1 to 10 nM.

For `NC(=O)c1ncc(N[C@@H]2CCCC[C@@H]2N)nc1Nc1ccn2ccnc2c1` [Example 427, 5-(((1R,2S)-2-aminocyclohexyl)amino)-3-(imidazo[1,2-a]pyridin-7-ylamino)pyrazine-2-carboxamide], the IC50 was in the range of 1 to 10 nM.

With `CCc1cc(Nc2nc(N[C@@H](C(N)=O)C(C)(C)C)cnc2C(N)=O)sn1` [Example 236, (R)-5-(1-amino-3,3-dimethyl-1-oxobutan-2-ylamino)-3-(3-ethylisothiazol-5-ylamino)pyrazine-2-carboxamide], the IC50 was 10 to 100 nM.

Turning to `NC(=O)c1ncc(NC(CC(F)(F)F)C(N)=O)nc1Nc1ccc2ncccc2c1` (centres unmarked) [Example 6, 5-(1-amino-4,4,4-trifluoro-1-oxobutan-2-ylamino)-3-(quinolin-6-ylamino)pyrazine-2-carboxamide], the IC50 is 1 to 10 nM.

Turning to `NC(=O)c1ncc(N[C@@H]2CCCC(F)(F)[C@@H]2N)nc1Nc1csc2ncccc12` [Example 448, 5-(((1R,2R)-2-amino-3,3-difluorocyclohexyl)amino)-3-(thieno[2,3-b]pyridin-3-ylamino)pyrazine-2-carboxamide], the IC50 was in the range of 1 to 10 nM.

Regarding `CC[C@@H](Nc1cnc(C(N)=O)c(Nc2cc(C3CC3)ns2)n1)C(N)=O` [Example 238, (R)-5-(1-amino-1-oxobutan-2-ylamino)-3-(3-cyclopropylisothiazol-5-ylamino)pyrazine-2-carboxamide], the IC50 fell in the range of 1 to 10 nM.

With `NC(=O)c1ncc(N[C@@H]2CCCC[C@@H]2N)nc1Nc1csc2ncccc12` [Example 428, 5-(((1R,2S)-2-aminocyclohexyl)amino)-3-(thieno[2,3-b]pyridin-3-ylamino)pyrazine-2-carboxamide], the IC50 is under 1 nM.

For `NC(=O)c1ncc(N[C@@H]2CCCC[C@@H]2N)nc1N[C@@H]1CCc2ccccc21` [Example 38, 5-((1R,2S)-2-aminocyclohexylamino)-3-((R)-2,3-dihydro-1H-inden-1-ylamino)pyrazine-2-carboxamide], the IC50 lay within 100 to 1000 nM.

On to `NC(=O)c1ncc(N[C@@H]2CCCC[C@@H]2N)nc1Nc1cnsc1` [Example 430, 5-(((1R,2S)-2-aminocyclohexyl)amino)-3-(isothiazol-4-ylamino)pyrazine-2-carboxamide], for which the IC50 was in the range of 10 to 100 nM.
